Six compounds from paper PMC5099944, “Design, synthesis and biological evaluation of hybrids of β-carboline and salicylic acid as potential anticancer and apoptosis inducing agents” (Scientific Reports, 2016) can be followed below.

The structures appear in SMILES notation. “Also recorded” adds a separate entry of the source. Read-outs that look alike come from different tables or passages of the source. Where only a bound is given, the exact number is not on record here.

In data set [1] the test system is SMMC-7721 cells. Briefly: MTT assay, proliferation of SMMC-7721 cells. In kind it is cell-based, human. The protocol:
(§1) The in vitro antitumor activities of the synthesized compounds 7a-l and 8a-l against five human cancer cells were evaluated in MTT assays using 5-fluorouracil (5-FU) and harmine as positive controls. These cells are human hepatocellular carcinoma cells (SMMC-7721 and Hep G2), human colon cancer cell lines (HCT116), human bladder carcinoma cells (EJ), and human lung cancer cells (H460).
(§2) Hepatocellular carcinoma cells (SMMC-7721 and Hep G2), Human colon cancer cell lines (HCT116), human bladder carcinoma cells (EJ) or human lung cancer cells (H460) at 10^4 cells per well were cultured in 10% FBS DMEM in 96-well flat-bottom microplates overnight. The cells were incubated in triplicate with, or without, different concentrations of each test compound for 48 h. During the last 4 h incubation, 30 μL of tetrazolium dye (MTT) solution (5 mg mL^−1) was added to each well. The resulting MTT-formazan crystals were dissolved in 150 μL DMSO, and absorbance was measured spectrophotometrically at 570 nm using an ELISA plate reader. The inhibition induced by each test compound at the indicated concentrations was expressed as a percentage. The concentration required for 50% inhibition (IC50) was calculated using the software (GraphPadPrism Version 4.03).
In general terms: Tetrazolium assays rely on reduction of a dye to a coloured formazan, in cell work by metabolically active cells.

For the next data set, the system named is Hep G2 cells. The experiment in a line: MTT assay, proliferation of Hep G2 cells. In kind it is cell-based. The following applies: Homo sapiens, HepG2, 48 h, read-out: In vitro cytotoxicity (IC50) Hep G2. As for the experimental part: as §1, §2
Data set [2] concerns SMMC-7721 cells. Briefly: Flow cytometry assay of cell apoptosis (FITC-Annexin V/PI). Format: cell-based, human. The following applies: 14 μM, 48 h. The protocol:
To determine whether apoptosis is involved in the anti-proliferative effects of 8h, apoptosis assay was performed using SMMC-7721 cells. The cells were incubated with either vehicle alone, different concentrations of 8h (7.0 or 14 μM), or 14 μM 5-FU for 48 h, and then stained with FITC-Annexin V and propidium iodide (PI). The percentages of apoptotic SMMC-7721 cells were determined by flow cytometry analysis. In the vehicle group, the occurrence of SMMC-7721 cell apoptosis was minimal. […] Low concentration of 8h (7.0 μM) induced 46% SMMC-7721 cell apoptosis, while the higher dose (14 μM) of 8h induced 63% SMMC-7721 cell apoptosis.
Figure 4 Compound 8h induced SMMC-7721 cell apoptosis in vitro. SMMC-7721 cells were incubated with the indicated concentrations of 8h and 14 μM 5-FU for 48 h, and the cells were stained with FITC-Annexin V and PI, followed by flow cytometry analysis. (A) Flow cytometry analysis. (B) Quantitative analysis of apoptotic cells. Data are expressed as means ± SD of the percentages of apoptotic cells from three independent experiments. *P < 0.01 vs control.
SMMC-7721 cells were cultured overnight and incubated in triplicate with compound 8h (7.0 and 14 μM), 5-FU (14 μM), or vehicle for 48 h. The cells were harvested, and stained with FITC-Annexin V and PI (BioVision) at room temperature for 15 min. The percentage of apoptotic cells was determined by flow cytometry (Beckman Coulter) analysis.
On the technique in general: Flow cytometry measures light scatter and fluorescence of single cells or particles in a stream.

The subject of a further data set is HCT116 cells. The experiment in a line: MTT assay, proliferation of HCT116 cells. Format: cell-based. Particulars: Homo sapiens, HCT-116, 48 h, read-out: In vitro cytotoxicity (IC50) HCT116. As for the experimental part: as §1, §2
For data set [3], the system named is human cancer cells (SMMC-7721, Hep G2, HCT116, EJ, H460). Briefly: MTT assay, summary statements across several human cancer cell lines. The following applies: Homo sapiens, MTT. In kind it is cell-based. As for the experimental part:
as §1, §2

For the next data set, the system named is LO2 cells. The experiment in a line: MTT assay, proliferation of normal liver LO2 cells. In kind it is cell-based, human. The following applies: 25 μM, 48 h, MTT assay. As for the experimental part: Given the strong growth inhibitory activity of 8h in vitro, it was profiled for antitumor selectivity by examining its inhibitory effects on the growth of SMMC-7721 cells and LO2 cells (human hepatocellular normal cells).
Figure 3 (A) Inhibitory effects of 8h on the proliferation of SMMC-7721 and LO2 cells. Cells were incubated with the indicated concentrations of 8h for 48 h. Cell proliferation was assessed using the MTT assay. Data are means ± SD of the inhibition (%) from three independent experiments. (B) Inhibitory effects of 5h, 8h, and SA or the vehicle control against SMMC-7721 and LO2 cells. SMMC-7721 and LO2 cells were incubated with the indicated compounds at 25 μM for 48 h, and cell proliferation was assessed by the MTT assay. Data are means ± SD of the inhibition (%) from three independent experiments. *P < 0.01 versus control of SMMC-7721, ^#P < 0.01 inhibitory effects of 8h in SMMC-7721 versus LO2 cells.
as §2

The next data set deals with H460 cells. Briefly: MTT assay, proliferation of H460 cells. Format: cell-based. Particulars: NCI-H460, 48 h, H460 human lung cancer cells, read-out: In vitro cytotoxicity (IC50) H460. The protocol: as §1, §2
The test system of the next data set is EJ cells. The experiment in a line: MTT assay, proliferation of EJ cells. Format: cell-based. Particulars: 48 h, EJ human bladder carcinoma cells, read-out: In vitro cytotoxicity (IC50) EJ. The protocol:
as §1, §2

Setting [4] is: Homo sapiens, SMMC-7721, 48 h, read-out: In vitro cytotoxicity (IC50) SMMC-7721, MTT assay, 48 h, SMMC-7721 human hepatocellular carcinoma cells.
Setting [5] is: cancer cell lines tested (SMMC-7721, Hep G2, HCT116), read-out: Antitumor activities (IC50) of capped analogs.

For `O=c1[nH]cc(F)c(=O)[nH]1` [5-FU, 5-fluorouracil, reference compound], the IC50 is 28.7 µM with SMMC-7721 cells [1] (setting [4]); 35.2 µM in the data set on Hep G2 cells; 19.6 µM in the data set on HCT116 cells; 19.6 to 35.2 µM in data set [3] (SMMC-7721, Hep G2, HCT116, read-out: IC50 values for liver and colon cancer cells growth (range over cell lines)). The “SMMC-7721 cell apoptosis (percentage of apoptotic cells)” value in the data set on SMMC-7721 cells [2] is 22%.
On to `Cc1nc(C(=O)NCCCCCN)cc2c1[nH]c1ccccc12` [5h, N-(5-Aminopentyl)-1-methyl-9H-pyrido[3,4-b]indole-3-carboxamide], for which, in the data set on SMMC-7721 cells [1] (setting [4]), the IC50 was 27.2 ± 3.4 µM. Also, the inhibition at 25 µM in the data set on SMMC-7721 cells [1] (Homo sapiens, SMMC-7721, 25 μM, 48 h, MTT assay, read-out: Inhibition of SMMC-7721 cell proliferation) is approximately 42%. In the data set with LO2 cells, the “Inhibitory effect on LO2 cells” value is on record as “a similar effect was seen in the non-tumor LO2 cells; also recorded: high toxicities”.
For the compound `O=C(NCCCCCCNC(=O)c1ccccc1O)c1cc2c(cn1)[nH]c1ccccc12` [8j, N-(6-(2-Hydroxybenzamido)hexyl)-9H-pyrido[3,4-b]indole-3-carboxamide], the IC50 with SMMC-7721 cells [1] (setting [4]) stood at 13.4 µM; in the data set on Hep G2 cells it was 17.2 µM; in the data set on H460 cells, 21.5 µM; with EJ cells, 16.5 µM; with HCT116 cells, 18.6 µM.
In the same order, the values of `Cc1nc(C(=O)NCCCCCCNC(=O)c2ccccc2O)cc2c1[nH]c1ccccc12` [8k, N-(6-(2-Hydroxybenzamido)hexyl)-1-methyl-9H-pyrido[3,4-b]indole-3-carboxamide] are 10.1 µM, 13.6 µM, 11.4 µM, 13.2 µM and 10.7 µM.
For the compound `CC(=O)NCCCCCNC(=O)c1cc2c([nH]c3ccccc32)c(C)n1` [10a, N-(5-acetamidopentyl)-1-methyl-9H-pyrido[3,4-b]indole-3-carboxamide], the IC50 in the data set with SMMC-7721 cells [1] (setting [4]) is 58.6 ± 6.7 µM; in the data set with SMMC-7721 cells [1] (human, 48 h) it was more than 50 µM; in the data set on Hep G2 cells, more than 50 µM; in the data set with HCT116 cells, more than 50 µM; in data set [3] (setting [5]) it was more than 50 µM.
`Cc1nc(C(=O)NCCCCCNC(=O)c2ccccc2)cc2c1[nH]c1ccccc12` [10b, N-(5-benzamidopentyl)-1-methyl-9H-pyrido[3,4-b]indole-3-carboxamide]: the IC50 in the data set with SMMC-7721 cells [1] (setting [4]) is more than 100 µM; with SMMC-7721 cells [1] (human, 48 h) it was more than 50 µM; in the data set on Hep G2 cells, more than 50 µM; in the data set with HCT116 cells it was more than 50 µM; in data set [3] (setting [5]), more than 50 µM.

Broadly, the IC50 is the midpoint of a concentration-inhibition curve.
